From patent US6362167B1, “Method of blocking free radical processes which result in mediated pathology without deleterious pro-oxidant side reactions” (Natreon Inc., priority 1999, dated 2002) come the findings set out here.

Structures are written as SMILES. In brackets after ≈: the same amount, converted by molar mass.

Assay [1] can be described thus: DPPH radical scavenging (antioxidant activity). Type of assay: biochemical. The settings on record: DPPH 100 μM in absolute ethyl alcohol, 20 minutes, absorbance 570 nm; mean ± SEM (n = 10 to 12). On the procedure: After 20 minutes, the absorbance (optical density) of the mixture was measured at a wavelength of 570 nm and compared to that of the control sample. The degree of scavenging of the DPPH radical by each test sample was calculated by comparing the absorbance of the test sample and the diluent control reaction mixture. The results are shown in Table 2 below, a lower IC value indicating a better antioxidant effect on the DPPH radical.
(Loss of DPPH colour is used to gauge radical scavenging.)

A further assay deals with PBR 322 plasmid DNA. Description: Prevention of DNA strand scission by hydroxyl radical from Cu(en)2-hydrogen peroxide. It counts as biochemical. On the procedure: The DNA strand scission was investigated by a method published by T. Ozawa, et al [Biochem. Mol. Biol. Int. 31, 455-46, 1993]. The method consists of addition of hydrogen peroxide (30%, final concentration 25 mM) to a mixture of Cu(en)2 (final concentration 0.25 mM) and 0.5 mcg of PBR 322 plasmid DNA solution (Takara Co., Japan). The hydroxyl radical, generated from Cu(en)2-hydrogen peroxide reaction, caused DNA strand scission.

The nature of assay [2]: Polymerization of methylmethacrylate (MMA) to polymethylmethacrylate (PMMA) by Fenton's reagent. The settings on record: for Effect on polymerization of MMA→PMMA: low concentrations of ascorbic acid (1.0 mg in b63). On the procedure: Thus, the pro-oxidant effect of a low concentration of AA could be systemically quite dangerous due to distinct involvement of OH radicals. […] N2 was passed through the mixture for 30 min. followed by H2O2. The onset of polymerization (the induction period in minutes) was noted. Polymerization was completed in about 24 hours at 35±2° C. The resulting precipitate was collected, washed and dried at 50° C. until a constant weight was obtained (See Table 3).

Setting [3] is: DNA + OH radical + test material.
[4] abbreviates: 3 g sample added (so in the source).

As for `CC(=O)Oc1c(C)c(C)c2c(c1C)CCC(C)(CCC[C@H](C)CCC[C@H](C)CCCC(C)C)O2` (stereo partly drawn) [α-Tocopheryl acetate (TA), α-Tocopheryl acetate], the “IC50 (DPPH radical scavenging)” value in assay [1] came to 50.55 ± 7.03 µg/mL.
As for `O=C1O[C@H]([C@@H](O)CO)C(O)=C1O` [AA, Ascorbic acid], in the assay on PBR 322 plasmid DNA (setting [3]), the “Linear form of DNA (LIN, Produced after breakage)” value is reported as 60%. Also, the “Open circular form Of DNA (OC)” value in the assay with PBR 322 plasmid DNA (setting [3]) is listed as 40%. The “Effect on DNA strand-scission by hydroxyl radicals compared to the control value” in the assay on PBR 322 plasmid DNA (physiological pH, Cu(en)2 and hydrogen peroxide) is “accelerated”. In assay [1], the “IC50 (DPPH radical scavenging)” value worked out at 18.41 ± 3.88 µg/mL (≈ 105 µM). Further, the “% Conversion of MMA → PMMA” value in assay [2] (1 mg sample added) is 78.7 ↑ %; in assay [2] (2 mg sample added), 69.8 ↑ %; in assay [2] (4 mg sample added) it was 44.0%; in assay [2] (5 mg sample added), 23.1%; in assay [2] (10 mg sample added) it was 8.4%; in assay [2] (setting [4]) it was 68.2 ↑ %. For the same compound, the “Induction Time” value in assay [2] (1 mg sample added), in assay [2] (2 mg sample added), in assay [2] (4 mg sample added), in assay [2] (5 mg sample added), in assay [2] (10 mg sample added) and in assay [2] (setting [4]) was 0 min throughout. Besides, the “Yield of PMMA” value in assay [2] (1 mg sample added) worked out at 772 mg; in assay [2] (2 mg sample added) it was 692 mg; in assay [2] (4 mg sample added), 432 mg; in assay [2] (5 mg sample added), 227 mg; in assay [2] (10 mg sample added), 83 mg; in assay [2] (setting [4]) it was 670 mg. In addition, the “Effect on polymerization of MMA→PMMA” value in assay [2] is reported as “significant augmentation of polymerization”; in assay [2] (listed as ascorbic acid) it was “augmented polymerization”.
